ChEMBL document CHEMBL5724914, “Linking interpersonal differences in gut microbiota composition and drug biotransformation activity” (2024)

What was measured:
[1] = human gut metagenome, 24 h, 2 µM
[2] = (§1) The drug is tested on Z-010 corresponding to metagenome with ENA study accession number: PRJEB37062 and ENA sample accession number: ERS12561810 for biotransformation under anaerobic condition. The drug concentrations were measured over 9 timepoints collected between 0 and 24 hours of incubation by liquid-chromatography-coupled mass spectrometry (LC–MS); conditions: 2 µM
[3] = as §1, with “Z-004” for “Z-010”, “ERS12561804” for “ERS12561810”; conditions: 2 µM
[4] = human gut metagenome, 24 h, 2 µM; remark: listed apart in the source
[5] = (§2) The drug is tested on WLS-240 corresponding to human gut metagenome with ENA study accession number: PRJEB37062 and ENA sample accession number: ERS12561773 for biotransformation under anaerobic condition. The drug concentrations were measured over 9 timepoints collected between 0 and 24 hours of incubation by liquid-chromatography-coupled mass spectrometry (LC–MS); conditions: 2 µM
[6] = as §1, with “Z-027” for “Z-010”, “ERS12561826” for “ERS12561810”; conditions: 2 µM
[7] = as §2, with “WLS-098” for “WLS-240”, “ERS12561754” for “ERS12561773”; conditions: 2 µM
[8] = as §2, with “Z-030” for “WLS-240”, “mouse” for “human”, “ERS12561829” for “ERS12561773”; conditions: 2 µM
[9] = as §2, with “Z-016” for “WLS-240”, “mouse” for “human”, “ERS12561815” for “ERS12561773”; conditions: 2 µM
[10] = as §2, with “Z-019” for “WLS-240”, “rat” for “human”, “ERS12561818” for “ERS12561773”; conditions: 2 µM
[11] = human gut metagenome, 24 h, 2 µM; remark: listed apart in the source
[12] = human gut metagenome, 24 h, 2 µM; remark: listed apart in the source
[13] = human gut metagenome, 24 h, 2 µM; remark: listed apart in the source
[14] = human gut metagenome, 24 h, 2 µM; remark: listed apart in the source
[15] = human gut metagenome, 24 h, 2 µM; remark: listed apart in the source
[16] = as §2, with “Z-011” for “WLS-240”, “mouse” for “human”, “ERS12561811” for “ERS12561773”; conditions: 2 µM
[17] = human gut metagenome, 24 h, 2 µM; remark: listed apart in the source
[18] = as §2, with “WLS-038” for “WLS-240”, “ERS12561745” for “ERS12561773”; conditions: 2 µM
[19] = as §2, with “Z-028” for “WLS-240”, “mouse” for “human”, “ERS12561827” for “ERS12561773”; conditions: 2 µM
[20] = human gut metagenome, 24 h, 2 µM; remark: listed apart in the source
Note: call rule not given here.

SMILES	Bacterial Biotransformation [1]	Bacterial Biotransformation [2]	Bacterial Biotransformation [3]	Bacterial Biotransformation [4]	Bacterial Biotransformation [5]	Bacterial Biotransformation [6]	Bacterial Biotransformation [7]	Bacterial Biotransformation [8]	Bacterial Biotransformation [9]	Bacterial Biotransformation [10]	Bacterial Biotransformation [11]	Bacterial Biotransformation [12]	Bacterial Biotransformation [13]	Bacterial Biotransformation [14]	Bacterial Biotransformation [15]	Bacterial Biotransformation [16]	Bacterial Biotransformation [17]	Bacterial Biotransformation [18]	Bacterial Biotransformation [19]	Bacterial Biotransformation [20]
CCc1oc2ccccc2c1C(=O)c1cc(Br)c(O)c(Br)c1 [BENZBROMARONE]	Compound NOT metabolized	Compound metabolized	Compound NOT metabolized	Compound metabolized	Compound metabolized	Compound NOT metabolized	Compound metabolized	Compound NOT metabolized	Compound NOT metabolized	Compound NOT metabolized	Compound metabolized	Compound metabolized	Compound NOT metabolized	Compound metabolized	Compound NOT metabolized	Compound metabolized	Compound metabolized	Compound metabolized	Compound metabolized	Compound metabolized
CC(NC(C)(C)C)C(=O)c1cccc(Cl)c1 (stereo not given) [BUPROPION]	Compound NOT metabolized	Compound NOT metabolized	Compound NOT metabolized	Compound NOT metabolized	Compound NOT metabolized	Compound NOT metabolized	Compound NOT metabolized	Compound NOT metabolized	Compound NOT metabolized	Compound NOT metabolized	Compound NOT metabolized	Compound NOT metabolized	Compound NOT metabolized	Compound NOT metabolized	Compound NOT metabolized	Compound NOT metabolized	Compound NOT metabolized	Compound NOT metabolized	Compound NOT metabolized	Compound NOT metabolized
O=C1CC2(CCCC2)CC(=O)N1CCCCN1CCN(c2ncccn2)CC1 [BUSPIRONE]	Compound metabolized	Compound metabolized	Compound NOT metabolized	Compound metabolized	Compound metabolized	Compound NOT metabolized	Compound metabolized	Compound NOT metabolized	Compound NOT metabolized	Compound NOT metabolized	Compound metabolized	Compound metabolized	Compound metabolized	Compound NOT metabolized	Compound NOT metabolized	Compound NOT metabolized	Compound metabolized	Compound NOT metabolized	Compound NOT metabolized	Compound NOT metabolized
CCCC(C)(COC(N)=O)COC(=O)NC(C)C (stereo not given) [CARISOPRODOL]	Compound metabolized	Compound metabolized	Compound metabolized	Compound NOT metabolized	Compound metabolized	Compound metabolized	Compound metabolized	Compound NOT metabolized	Compound metabolized	Compound NOT metabolized	Compound metabolized	Compound NOT metabolized	Compound metabolized	Compound metabolized	Compound metabolized	Compound metabolized	Compound metabolized	Compound metabolized	Compound metabolized	Compound NOT metabolized
COc1ccccc1OCCNCC(O)COc1cccc2[nH]c3ccccc3c12 (stereo not given) [CARVEDILOL]	Compound NOT metabolized	Compound metabolized	Compound NOT metabolized	Compound metabolized	Compound metabolized	Compound NOT metabolized	Compound metabolized	Compound NOT metabolized	Compound NOT metabolized	Compound NOT metabolized	Compound metabolized	Compound metabolized	Compound NOT metabolized	Compound NOT metabolized	Compound metabolized	Compound NOT metabolized	Compound NOT metabolized	Compound metabolized	Compound NOT metabolized	Compound metabolized
CC(C)(C)NCC(O)c1cc(Cl)c(N)c(Cl)c1 (stereo not given) [CLENBUTEROL]	Compound NOT metabolized	Compound NOT metabolized	Compound NOT metabolized	Compound NOT metabolized	Compound NOT metabolized	Compound NOT metabolized	Compound NOT metabolized	Compound NOT metabolized	Compound NOT metabolized	Compound NOT metabolized	Compound NOT metabolized	Compound NOT metabolized	Compound NOT metabolized	Compound NOT metabolized	Compound NOT metabolized	Compound NOT metabolized	Compound NOT metabolized	Compound NOT metabolized	Compound NOT metabolized	Compound NOT metabolized
C[N+]12CCC(CC1)C(OC(=O)C(O)(c1ccccc1)c1ccccc1)C2.[Br-] (stereo not given) [CLIDINIUM BROMIDE]	Compound NOT metabolized	Compound metabolized	Compound NOT metabolized	Compound metabolized	Compound metabolized	Compound NOT metabolized	Compound NOT metabolized	Compound NOT metabolized	Compound NOT metabolized	Compound NOT metabolized	Compound NOT metabolized	Compound metabolized	Compound metabolized	Compound NOT metabolized	Compound NOT metabolized	Compound NOT metabolized	Compound metabolized	Compound NOT metabolized	Compound NOT metabolized	Compound metabolized
